Results on three compounds are retold here after patent US12187716B2, “TYK2 kinase inhibitors” (SAREUM LIMITED, priority 2018, dated 2025).

One series concerns the target T1, CYP2C8 (Homo sapiens, UniProt P10632).
T1 construct: from tissue; host or cells: pooled human liver microsomes
T1 sequence (P10632 1-490): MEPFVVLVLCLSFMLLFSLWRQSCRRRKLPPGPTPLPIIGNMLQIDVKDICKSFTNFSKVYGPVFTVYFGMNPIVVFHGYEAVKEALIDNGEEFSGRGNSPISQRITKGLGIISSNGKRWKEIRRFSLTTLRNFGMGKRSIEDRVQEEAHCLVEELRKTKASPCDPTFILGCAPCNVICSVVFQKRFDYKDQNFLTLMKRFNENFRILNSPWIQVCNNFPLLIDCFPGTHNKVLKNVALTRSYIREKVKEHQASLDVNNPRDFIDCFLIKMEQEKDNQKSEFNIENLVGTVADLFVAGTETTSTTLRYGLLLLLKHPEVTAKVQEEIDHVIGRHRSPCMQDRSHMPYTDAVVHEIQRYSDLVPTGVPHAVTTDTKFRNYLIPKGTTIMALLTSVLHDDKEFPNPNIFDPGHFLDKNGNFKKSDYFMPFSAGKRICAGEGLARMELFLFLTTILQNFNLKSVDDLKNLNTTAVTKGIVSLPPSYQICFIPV
Nature of the series: Cytochrome P450 inhibition assay, CYP2C8. It counts as in vitro ADME. The conditions noted are these: pooled human liver microsomes, probe Amodiaquine. The procedure:
(§1) The susceptibility of Compounds (2) and (3) to potential drug-drug interactions was tested by assaying their abilities to inhibit various cytochrome P450 isoforms. Prior art Compound B (see Example 3 above) was also tested as a comparative example. Test compounds, prepared and serially diluted in DMSO, were incubated at six concentrations (1% DMSO final) with pooled human liver microsomes in the presence of probe substrate for each isoform, and their effects on the metabolism of probe substrates determined. Incubations (in 96-well plates) were carried out at 37° C. in 0.1 M Tris buffer, pH 7.4, with reactions initiated by the addition of cofactor, NADPH (1 mM final concentration). At the specified times, reactions were terminated with acetonitrile containing an analytical internal standard, samples were centrifuged and the supernatant fractions were analysed for probe substrate metabolites by mass spectrometry (LC-MS/MS). The instrument responses were normalised to internal standard and compared to the appropriate solvent controls to determine the amount of metabolite formed from the probe substrates relative to these “uninhibited” controls. […] [table]

Another series concerns the target T2, CYP2C19 (Homo sapiens, UniProt P33261).
T2 construct: from tissue; host or cells: pooled human liver microsomes
Put plainly: Cytochrome P450 inhibition assay, CYP2C19. Format: in vitro ADME. As to conditions: pooled human liver microsomes, probe S-(+)-Mephenytoin. The method, then:
as §1

The next series deals with T3, CYP3A4 (Homo sapiens, UniProt P08684).
T3 construct: from tissue; host or cells: pooled human liver microsomes
Nature of the series: Cytochrome P450 inhibition assay, CYP3A4. The conditions noted are these: pooled human liver microsomes. Format: in vitro ADME. The method, then: as §1

The nature of series [1]: Hepatocyte stability assay, mouse. As to conditions: male, CD-1, pooled hepatocytes, 37° C. It counts as in vitro ADME. The procedure:
(§2) Test and control compounds were incubated with hepatocytes at 37° C. Aliquots were removed at 6 timepoints over a one hour period. Samples were centrifuged and the supernatant fractions analysed for parent compound by mass spectrometry (LC-MS/MS).
(§3) The amount of compound remaining (expressed as %) was determined from the MS response in each sample relative to that in the T=0 samples, and used to determine the half-life and intrinsic clearance of the compound.

Series [2] is described as follows: Hepatocyte stability assay, rat. As to conditions: male, Sprague-Dawley, pooled hepatocytes, 37° C. It counts as in vitro ADME. The method, then:
as §2, §3

For series [3], the system named is IL-17F production in Th17 cells. Put plainly: IL-17F production inhibition in Th17 cells derived from human peripheral blood CD4CD45RO+ cells. Format: cell-based. The procedure:
(§4) Fresh human Peripheral blood CD4CD45RO+ cells were purchased commercially (Generon, UK); 3 separate vials from 3 different volunteers for experimental replicates. Cells were grown in T-cell medium (Thermo Fisher) containing 10 ng/ml recombinant human IL-1B (R&D Systems), IL-23 (R&D Systems), TGF-B1 (R&D Systems) and 50 ng/ml IL-6 (R&D Systems) together with anti-CD3/CD28 magnetic Dynabeads (Thermo Fisher). These were grown for 11 days to induce expansion of Th17 cells. Prior to plating for assays cells were grown overnight in T-cell medium supplemented with human serum (1%) overnight. Media was removed and replaced with unsupplemented RPMI for 4 h prior to assay.
To measure IL-17F levels, 200,000 cells were plated into a 96 well plate and preincubated with compounds for 30 minutes followed by stimulation with recombinant IL-23 at 6.25 ng/ml and recombinant human IL-1B at 0.1 ng/ml for 48 h. Supernatants were removed and IL-17F levels measured using a commercially available ELISA kit (Thermo Fisher; BMS2037-2).
(§5) ELISAs were carried out according to manufacturers instructions and absorbance read using a microplate reader (Thermo Fisher; Varioskan). Data was normalised to the response in untreated samples using the formula: % of control=((Stimulated sample Conc.−unstimulated sample Conc.)×100)/(Control stimulated Conc.−control unstimulated Conc.)
(§6) Graphpad Prism 8.1.0 was used to calculate I050 values using a Nonlinear 4 parameter logistic regression model (4PL).

Series [4] has as its system STAT3 phosphorylation in Th17 cells. Put plainly: Inhibition of STAT3 phosphorylation in Th17 cells derived from human peripheral blood CD4CD45RO+ cells. It counts as cell-based. The method, then:
as §4
To measure pSTAT3 levels, 200,000 cells were plated into a 96 well plate and preincubated with compounds for 30 minutes followed by stimulation with recombinant IL-23 at 12.5 ng/ml for 15 minutes then lysed using cell lysis buffer. pSTAT3 levels in the lysates were measured using a commercially available ELISA kit (Thermo Fisher; 85-86102-11).
as §5, §6

Another series has as its target JAK1 (Homo sapiens, UniProt P23458). Nature of the series: JAK1 kinase inhibition assay (33P-ATP filter binding, Reaction Biology).
Another series has as its target JAK3 (Homo sapiens, UniProt P52333). Nature of the series: JAK3 kinase inhibition assay (33P-ATP filter binding, Reaction Biology).
[5] abbreviates: probe Midazolam, read-out: CYP3A4 (MID) IC50.
The mark [6] stands for this setting: probe Testosterone, read-out: CYP3A4 (Test) IC50.
[7] abbreviates: IL-23 6.25 ng/ml + IL-1B 0.1 ng/ml, 48 h, Donor 1, read-out: IL17-F Production Inhibition IC50, Donor 1.
Setting [8] is: IL-23 6.25 ng/ml + IL-1B 0.1 ng/ml, 48 h, Donor 2, read-out: IL17-F Production Inhibition IC50, Donor 2.
The mark [9] stands for this setting: IL-23 6.25 ng/ml + IL-1B 0.1 ng/ml, 48 h, Donor 3, read-out: IL17-F Production Inhibition IC50, Donor 3.
The mark [10] stands for this setting: average of 3 donors, read-out: IL17-F Production Inhibition IC50, Average.
Where [11] appears, read: 0.25 h, IL-23 12.5 ng/ml, 15 minutes, Donor 1, read-out: Inhibition of STAT3 phosphorylation IC50, Donor 1.
Where [12] appears, read: 0.25 h, IL-23 12.5 ng/ml, 15 minutes, Donor 2, read-out: Inhibition of STAT3 phosphorylation IC50, Donor 2.
[13] abbreviates: 0.25 h, IL-23 12.5 ng/ml, 15 minutes, Donor 3, read-out: Inhibition of STAT3 phosphorylation IC50, Donor 3.
The mark [14] stands for this setting: average of 3 donors, read-out: Inhibition of STAT3 phosphorylation IC50, Average.

Where two headings read alike, the source gives them in different places.

T2 sequence (P33261 whole entry): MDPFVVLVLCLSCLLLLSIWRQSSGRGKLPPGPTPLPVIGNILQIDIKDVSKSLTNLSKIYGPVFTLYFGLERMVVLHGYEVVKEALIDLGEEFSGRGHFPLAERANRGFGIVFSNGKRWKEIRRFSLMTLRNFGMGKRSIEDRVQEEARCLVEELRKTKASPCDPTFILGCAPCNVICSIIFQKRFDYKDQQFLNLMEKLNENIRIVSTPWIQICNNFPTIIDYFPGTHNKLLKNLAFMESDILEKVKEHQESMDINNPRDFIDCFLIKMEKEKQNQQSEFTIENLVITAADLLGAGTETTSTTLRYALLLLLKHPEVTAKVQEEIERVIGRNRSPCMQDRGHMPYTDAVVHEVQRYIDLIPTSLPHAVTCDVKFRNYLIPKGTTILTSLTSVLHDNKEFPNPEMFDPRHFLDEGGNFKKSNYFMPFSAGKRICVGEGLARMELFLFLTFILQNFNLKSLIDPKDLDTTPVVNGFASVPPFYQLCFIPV
Sequence of JAK3 (P52333 781-1124): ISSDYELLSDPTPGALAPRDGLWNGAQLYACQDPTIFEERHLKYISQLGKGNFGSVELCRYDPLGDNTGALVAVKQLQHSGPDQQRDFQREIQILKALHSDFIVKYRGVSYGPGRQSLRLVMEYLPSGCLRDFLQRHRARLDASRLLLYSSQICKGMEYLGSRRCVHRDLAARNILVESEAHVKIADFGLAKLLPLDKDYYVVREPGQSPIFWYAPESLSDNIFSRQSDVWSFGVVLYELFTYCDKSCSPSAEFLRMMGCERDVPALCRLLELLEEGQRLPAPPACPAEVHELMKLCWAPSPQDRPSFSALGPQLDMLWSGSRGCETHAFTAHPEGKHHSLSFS
T3 sequence (P08684 whole entry): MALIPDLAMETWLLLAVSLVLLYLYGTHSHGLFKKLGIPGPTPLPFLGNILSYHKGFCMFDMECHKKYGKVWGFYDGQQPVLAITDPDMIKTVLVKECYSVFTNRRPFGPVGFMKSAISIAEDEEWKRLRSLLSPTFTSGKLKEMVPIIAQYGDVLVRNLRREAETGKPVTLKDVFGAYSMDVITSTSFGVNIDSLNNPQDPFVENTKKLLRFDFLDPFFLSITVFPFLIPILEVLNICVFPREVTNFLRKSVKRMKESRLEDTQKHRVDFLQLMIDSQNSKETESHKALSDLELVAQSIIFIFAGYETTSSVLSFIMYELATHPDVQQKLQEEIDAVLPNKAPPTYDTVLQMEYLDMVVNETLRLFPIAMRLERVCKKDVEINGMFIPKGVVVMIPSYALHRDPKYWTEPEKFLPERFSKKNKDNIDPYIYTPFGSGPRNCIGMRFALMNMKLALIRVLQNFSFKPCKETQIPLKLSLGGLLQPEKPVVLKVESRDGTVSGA
Sequence of JAK1 (P23458 866-1154): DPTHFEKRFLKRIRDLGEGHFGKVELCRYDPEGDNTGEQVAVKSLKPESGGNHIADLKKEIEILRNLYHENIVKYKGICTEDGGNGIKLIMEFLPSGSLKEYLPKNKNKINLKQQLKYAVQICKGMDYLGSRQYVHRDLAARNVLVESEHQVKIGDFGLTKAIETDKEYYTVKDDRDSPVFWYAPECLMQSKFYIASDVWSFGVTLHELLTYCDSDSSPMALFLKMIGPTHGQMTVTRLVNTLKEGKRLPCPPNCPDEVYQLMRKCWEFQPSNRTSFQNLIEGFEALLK

For the compound `NC(=O)c1nc(-c2c(Cl)cccc2Cl)oc1Nc1ccc(C(=O)N2CCS(=O)(=O)CC2)c(F)c1` [Compound (3)], the IC50 against CYP2C8 is more than 30000 nM; against CYP2C19, 29000 nM; at CYP3A4 (setting [5]), more than 30000 nM; on CYP3A4 (setting [6]), more than 30000 nM; in [3] (setting [7]), 57 nM; in series [3] (setting [8]), 548 nM. The IC50 in series [3] (setting [9]) is 105 nM; in series [3] (setting [10]), 237 nM; in series [4] (setting [11]) it was 157 nM; in series [4] (setting [12]), 29 nM; in series [4] (setting [13]) it was 91 nM; in series [4] (setting [14]), 92 nM. The IC50 worked out at 51 nM at JAK1 and 772 nM at JAK3. Also, the hepatocyte CLint in [1] turned out to be 28 µL/min/1e6 cells; in [2], 53.8 µL/min/1e6 cells. Besides, the results for the half-life in [1] (read-out: Mouse T1/2) and in [2] (read-out: Rat T1/2) were 39.2 min and 28.5 min, respectively. Besides, the “Selectivity v TYK2: JAK1” value at JAK1 (ratio of JAK1 IC50 to TYK2 IC50) is given as 10.9. Also, on JAK3 (biochemical assays), the “selectivity for TYK2 compared to JAK3” value is listed as approximately 164 fold. In addition, the “Selectivity v TYK2: JAK3” value on JAK3 (ratio of JAK3 IC50 to TYK2 IC50) came out at 164.3.

With `NC(=O)c1nc(-c2c(Cl)cccc2Cl)oc1Nc1ccc(C(=O)N2CCOCC2)cc1` [Comparative Compound B, 2-(2,6-dichloro-phenyl)-5-[4-(morpholine-4-carbonyl)-phenylamino]-oxazole-4-carboxylic acid amide, reference compound], the IC50 is more than 8200 nM at CYP2C8; more than 30000 nM at CYP2C19; more than 30000 nM on CYP3A4 (setting [5]); more than 30000 nM on CYP3A4 (setting [6]); 243 nM in [3] (setting [7]); 217 nM in [3] (setting [8]). Moreover, the IC50 amounted to 148 nM in series [3] (setting [9]); 203 nM in series [3] (setting [10]); 111 nM in series [4] (setting [11]); 17 nM in series [4] (setting [12]); 54 nM in [4] (setting [13]); 61 nM in [4] (setting [14]). Also, the IC50 on JAK1 amounted to 26 nM; at JAK3, 271 nM. The hepatocyte CLint in [1] is 40.5 µL/min/1e6 cells; in series [2] it was 104 µL/min/1e6 cells.

As to `NC(=O)c1nc(-c2c(Cl)cccc2Cl)oc1Nc1ccc(C(=O)N2CCS(=O)(=O)CC2)cc1` [Compound (2)], the IC50 at CYP2C8 was more than 30000 nM; against CYP2C19, more than 30000 nM; at CYP3A4 (setting [5]), more than 30000 nM; on CYP3A4 (setting [6]) it was more than 30000 nM; in series [3] (setting [7]), 117 nM; in [3] (setting [8]) it was 134 nM. Moreover, the IC50 was 64 nM in [3] (setting [9]); 105 nM in series [3] (setting [10]); 69 nM in series [4] (setting [11]); 29 nM in series [4] (setting [12]); 55 nM in series [4] (setting [13]); 51 nM in [4] (setting [14]). In addition, the IC50 at JAK1 is 20 nM; on JAK3, 212 nM. For the same compound, the hepatocyte CLint in series [1] stood at 16.8 µL/min/1e6 cells; in [2], 50 µL/min/1e6 cells.
